Patent publication US9932340B2, “Substituted indoles” (AbbVie Inc., priority 2014, dated 2018)

These compounds were tested against SUV420H1 enzyme (Homo sapiens, UniProt Q4FZB7) (assay: TR-FRET SAH SUV420H1 enzyme inhibition assay). Conditions: Histone Peptide H4(8-30)me1 and SAM, overnight at room temp, TR-FRET detection of SAH, read-out: TR-FRET SAH_SUV420H1 IC50.
Type: biochemical
Method: Test compounds were dispensed by a Labcyte Echo in 384-well low volume assay plates with 3-fold serial dilutions from 50 μM to 0.00075 μM. 5 μL of SUV420H1 enzyme (Abbvie) at 90 nM was added to all wells except the no enzyme control wells, and incubated for 30 minutes at room temp before 5 μL of Histone Peptide H4(8-30)me1 (Anaspec) at 5 nM and SAM at 4 nM was added to all wells. The plates were incubated in a humidified chamber overnight at room temp and then 10 μL of the detection reagent that contained RIPA buffer (50 mM Tris-HCl, pH 8.0, 150 mM sodium chloride, 1.0% Igepal CA-630 (NP-40), 0.5% sodium deoxycholate and 0.1% sodium dodecyl sulfate) (Sigma) with 2 nM of Terbium chelate anti S-adenosyl-L-homocysteine (SAH) (Abbvie) antibody and Oregon Green labeled SAH at 4 nM was added. The plates were further incubated for 4 hours at room temperature. The plates were read in a Perkin Elmer Envision using a TR-FRET protocol with Excitation set at 335 nm and Emission at 520 and 495 nm. To generate dose response curves the data is normalized to percent inhibition by setting the average of the plus and minus enzyme control wells to 0% and 100% inhibition respectively. The IC50 values for the compounds are generated by fitting the normalized data with Accelrys Assay Explorer 3.3 to a sigmoidal curve model using […] regression, Y=(100*x^n)/(K^n+x^n), where Y is the measured response, x is the compound concentration, n is the Hill Slope and K is the IC50 and the lower and higher asymptotes are constrained to 0 and 100 respectively.

SUV420H1 enzyme, sequence (Q4FZB7 whole entry): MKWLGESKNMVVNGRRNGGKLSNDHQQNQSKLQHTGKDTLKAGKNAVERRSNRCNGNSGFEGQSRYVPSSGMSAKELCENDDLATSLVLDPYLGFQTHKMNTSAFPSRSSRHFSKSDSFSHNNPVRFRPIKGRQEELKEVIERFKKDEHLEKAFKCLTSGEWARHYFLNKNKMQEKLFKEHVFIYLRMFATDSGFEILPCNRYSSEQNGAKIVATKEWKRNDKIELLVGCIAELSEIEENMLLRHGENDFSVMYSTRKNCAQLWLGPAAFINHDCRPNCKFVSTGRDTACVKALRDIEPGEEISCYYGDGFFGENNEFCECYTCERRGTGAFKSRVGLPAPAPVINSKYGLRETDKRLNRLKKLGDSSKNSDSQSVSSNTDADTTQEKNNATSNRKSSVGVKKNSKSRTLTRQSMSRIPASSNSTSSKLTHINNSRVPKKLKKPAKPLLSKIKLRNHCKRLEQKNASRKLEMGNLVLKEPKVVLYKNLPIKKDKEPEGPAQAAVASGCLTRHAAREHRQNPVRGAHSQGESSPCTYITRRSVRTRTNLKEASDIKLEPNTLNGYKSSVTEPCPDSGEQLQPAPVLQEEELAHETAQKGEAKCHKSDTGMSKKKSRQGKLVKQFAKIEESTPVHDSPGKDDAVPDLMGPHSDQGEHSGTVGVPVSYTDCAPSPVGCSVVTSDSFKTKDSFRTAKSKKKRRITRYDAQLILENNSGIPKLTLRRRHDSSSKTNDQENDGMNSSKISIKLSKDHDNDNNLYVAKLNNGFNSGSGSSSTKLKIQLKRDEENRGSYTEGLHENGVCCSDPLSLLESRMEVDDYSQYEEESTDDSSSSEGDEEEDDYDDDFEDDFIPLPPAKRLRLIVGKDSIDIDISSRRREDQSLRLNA

| IC50 [nM] | SMILES |
| --- | --- |
| 236 | CS(=O)(=O)Nc1ccc(-c2cc(Cn3cnc4c(N)ncnc43)c3[nH]c(CN)cc3c2)cc1 [Example 41, N-(4-{2-(aminomethyl)-7-[(6-amino-9H-purin-9-yl)methyl]-1H-indol-5-yl}phenyl)methanesulfonamide] |
| 450 | CS(=O)(=O)Nc1cccc(-c2cc(Cn3cnc4c(N)ncnc43)c3[nH]c(CN)cc3c2)c1 [Example 42, N-(3-{2-(aminomethyl)-7-[(6-amino-9H-purin-9-yl)methyl]-1H-indol-5-yl}phenyl)methanesulfonamide] |
| 560 | COC(=O)c1ccc(-c2cc(Cn3cnc4c(N)ncnc43)c3[nH]c(CN)cc3c2)cc1 [Example 44, methyl 4-{2-(aminomethyl)-7-[(6-amino-9H-purin-9-yl)methyl]-1H-indol-5-yl}benzoate] |
| 356 | N#CCc1ccc(-c2cc(Cn3cnc4c(N)ncnc43)c3[nH]c(CN)cc3c2)cc1 [Example 45, (4-{2-(aminomethyl)-7-[(6-amino-9H-purin-9-yl)methyl]-1H-indol-5-yl}phenyl)acetonitrile] |
| 541 | CCNC(=O)c1cccc(-c2cc(Cn3cnc4c(N)ncnc43)c3[nH]c(CN)cc3c2)c1 [Example 46, 3-{2-(aminomethyl)-7-[(6-amino-9H-purin-9-yl)methyl]-1H-indol-5-yl}-N-ethylbenzamide] |
| 354 | CN(C)C(=O)c1ccc(-c2cc(Cn3cnc4c(N)ncnc43)c3[nH]c(CN)cc3c2)cc1 [Example 47, 4-{2-(aminomethyl)-7-[(6-amino-9H-purin-9-yl)methyl]-1H-indol-5-yl}-N,N-dimethylbenzamide] |
| 1330 | CN(C)C(=O)c1cccc(-c2cc(Cn3cnc4c(N)ncnc43)c3[nH]c(CN)cc3c2)c1 [Example 48, 3-{2-(aminomethyl)-7-[(6-amino-9H-purin-9-yl)methyl]-1H-indol-5-yl}-N,N-dimethylbenzamide] |
| 193 | CN(C)CCNC(=O)c1ccc(-c2cc(Cn3cnc4c(N)ncnc43)c3[nH]c(CN)cc3c2)cc1 [Example 49, 4-{2-(aminomethyl)-7-[(6-amino-9H-purin-9-yl)methyl]-1H-indol-5-yl}-N-[2-(dimethylamino)ethyl]benzamide] |
| 223 | NCc1cc2cc(-c3ccc(C(=O)NC4CC4)cc3)cc(Cn3cnc4c(N)ncnc43)c2[nH]1 [Example 50, 4-{2-(aminomethyl)-7-[(6-amino-9H-purin-9-yl)methyl]-1H-indol-5-yl}-N-cyclopropylbenzamide] |
| 294 | NCc1cc2cc(-c3cccc(C(=O)NC4CC4)c3)cc(Cn3cnc4c(N)ncnc43)c2[nH]1 [Example 51, 3-{2-(aminomethyl)-7-[(6-amino-9H-purin-9-yl)methyl]-1H-indol-5-yl}-N-cyclopropylbenzamide] |
| 244 | NCc1cc2cc(-c3cccc(N4CCOCC4)c3)cc(Cn3cnc4c(N)ncnc43)c2[nH]1 [Example 52, 9-({2-(aminomethyl)-5-[3-(morpholin-4-yl)phenyl]-1H-indol-7-yl}methyl)-9H-purin-6-amine] |
| 590 | NCc1cc2cc(-c3cccc(C(=O)N4CCOCC4)c3)cc(Cn3cnc4c(N)ncnc43)c2[nH]1 [Example 53, (3-{2-(aminomethyl)-7-[(6-amino-9H-purin-9-yl)methyl]-1H-indol-5-yl}phenyl)(morpholin-4-yl)methanone] |
| 1180 | CN1CCN(Cc2ccc(-c3cc(Cn4cnc5c(N)ncnc54)c4[nH]c(CN)cc4c3)cc2)CC1 [Example 54, 9-{[2-(aminomethyl)-5-{4-[(4-methylpiperazin-1-yl)methyl]phenyl}-1H-indol-7-yl]methyl}-9H-purin-6-amine] |
| 293 | CN1CCN(Cc2cccc(-c3cc(Cn4cnc5c(N)ncnc54)c4[nH]c(CN)cc4c3)c2)CC1 [Example 55, 9-{[2-(aminomethyl)-5-{3-[(4-methylpiperazin-1-yl)methyl]phenyl}-1H-indol-7-yl]methyl}-9H-purin-6-amine] |
| 240 | CN1CCN(C(=O)c2ccc(-c3cc(Cn4cnc5c(N)ncnc54)c4[nH]c(CN)cc4c3)cc2)CC1 [Example 56, (4-{2-(aminomethyl)-7-[(6-amino-9H-purin-9-yl)methyl]-1H-indol-5-yl}phenyl)(4-methylpiperazin-1-yl)methanone] |
| 457 | NCc1cc2cc(-c3ccc4c(c3)CCO4)cc(Cn3cnc4c(N)ncnc43)c2[nH]1 [Example 57, 9-{[2-(aminomethyl)-5-(2,3-dihydro-1-benzofuran-5-yl)-1H-indol-7-yl]methyl}-9H-purin-6-amine] |
| 7880 | NCc1cc2ccc(Cl)c(Cn3cnc4c(N)ncnc43)c2[nH]1 [Example 58, 9-{[2-(aminomethyl)-6-chloro-1H-indol-7-yl]methyl}-9H-purin-6-amine] |
| 7510 | C=Cc1ccc2cc(CN)[nH]c2c1Cn1cnc2c(N)ncnc21 [Example 59, 9-{[2-(aminomethyl)-6-ethenyl-1H-indol-7-yl]methyl}-9H-purin-6-amine] |
| 38400 | C=C(C)c1ccc2cc(CN)[nH]c2c1Cn1cnc2c(N)ncnc21 [Example 60, 9-{[2-(aminomethyl)-6-(prop-1-en-2-yl)-1H-indol-7-yl]methyl}-9H-purin-6-amine] |
| 20300 | NCc1cc2ccc(-c3ccccc3)c(Cn3cnc4c(N)ncnc43)c2[nH]1 [Example 61, 9-{[2-(aminomethyl)-6-phenyl-1H-indol-7-yl]methyl}-9H-purin-6-amine] |
| 1120 | NCc1cc2c(Cl)ccc(Cn3cnc4c(N)ncnc43)c2[nH]1 [Example 62, 9-{[2-(aminomethyl)-4-chloro-1H-indol-7-yl]methyl}-9H-purin-6-amine] |
| 4030 | C=Cc1ccc(Cn2cnc3c(N)ncnc32)c2[nH]c(CN)cc12 [Example 63, 9-{[2-(aminomethyl)-4-ethenyl-1H-indol-7-yl]methyl}-9H-purin-6-amine] |
| 3080 | CCc1ccc(Cn2cnc3c(N)ncnc32)c2[nH]c(CN)cc12 [Example 64, 9-{[2-(aminomethyl)-4-ethyl-1H-indol-7-yl]methyl}-9H-purin-6-amine] |
| 5080 | C=C(C)c1ccc(Cn2cnc3c(N)ncnc32)c2[nH]c(CN)cc12 [Example 65, 9-{[2-(aminomethyl)-4-(prop-1-en-2-yl)-1H-indol-7-yl]methyl}-9H-purin-6-amine] |
| 4290 | CC(C)c1ccc(Cn2cnc3c(N)ncnc32)c2[nH]c(CN)cc12 [Example 66, 9-{[2-(aminomethyl)-4-(propan-2-yl)-1H-indol-7-yl]methyl}-9H-purin-6-amine] |
| 200 | NCc1cc2c(C3=CCCC3)ccc(Cn3cnc4c(N)ncnc43)c2[nH]1 [Example 67, 9-{[2-(aminomethyl)-4-(cyclopent-1-en-1-yl)-1H-indol-7-yl]methyl}-9H-purin-6-amine] |
| 972 | Cn1cc(-c2ccc(Cn3cnc4c(N)ncnc43)c3[nH]c(CN)cc23)cn1 [Example 68, 9-{[2-(aminomethyl)-4-(1-methyl-1H-pyrazol-4-yl)-1H-indol-7-yl]methyl}-9H-purin-6-amine] |
| 663 | NCc1cc2c(-c3cccnc3)ccc(Cn3cnc4c(N)ncnc43)c2[nH]1 [Example 69, 9-{[2-(aminomethyl)-4-(pyridin-3-yl)-1H-indol-7-yl]methyl}-9H-purin-6-amine] |
| 1000 | NCc1cc2c(-c3ccccc3)ccc(Cn3cnc4c(N)ncnc43)c2[nH]1 [Example 70, 9-{[2-(aminomethyl)-4-phenyl-1H-indol-7-yl]methyl}-9H-purin-6-amine] |
